Experimental data: PMC12632313 (bioRxiv, 2025)

Assay: Ex-vivo stability in mouse whole blood
Assay type: in vitro ADME
Conditions: male, C57BL/6, mouse

- half-life: 3.9 ± 1.3 min
Substance: H-RPPGFSPFR-OH [Bradykinin (BK), Bradykinin]
